Molecules are shown by their SMILES. Read-outs that look alike come from different tables or passages of the source.

EC50 data for 40 compounds are collected here from patent publication US4525589A, “Isoquinolinesulfonyl derivatives” (Asahi Kasei Kogyo Kabushiki Kaisha, priority 1981, dated 1985).

The assay deals with mesenteric artery. Kind of assay: Relaxation of mesenteric artery (helical strips contracted with KCl, organ bath). Also on record: species or system rabbit (home bred, Japanese species). The following applies: Oryctolagus cuniculus, read-out: Relaxation of Mesenteric Artery ED50. The procedure: After a home bred rabbit of a Japanese species weighing about 3 Kg was subjected to bloodletting, resulting in death and then to abdominal incision, the mesenteric artery was taken out, cut into helicoids of 2 mm×25 mm and suspended in a 20 ml organ bath filled with a Krebs-Henseleit solution into which a mixed gas of 95% by volume of O2 and 5% by volume of CO2 was introduced and one end of the artery was connected with an isometric transducer. When a load of 1.5 g was applied to the artery, the contraction and the relaxation of the artery were recorded as a weight on the transducer (a product of Nippon Koden K.K., Japan, "FD Pickup TB-912T"). The relaxation of the mesenteric artery was observed by adding the isoquinolinesulfonyl derivatives and their pharmaceutically acceptable acid addition salts of this invention to the mesenteric artery at the condition of about one half of the maximum contraction with KCl at a KCl concentration of 15~20 mM. When the complete relaxation of the mesenteric artery was designated 100%, the concentration of the isoquinolinesulfonyl derivatives and their pharmaceutically acceptable acid addition salts which brought about a relaxation of 50% is shown in Table 12.

[1] abbreviates: concentration for 50% relaxation, KCl 15~20 mM contraction.

In the case of `NCCCNS(=O)(=O)c1cccc2cnccc12` [Compound (2), N-(3-aminopropyl)-5-isoquinolinesulfonamide], the EC50 under setting [1] was 7 µM.

Regarding `NCCCCNS(=O)(=O)c1cccc2cnccc12` [Compound (3), N-(4-aminobutyl)-5-isoquinolinesulfonamide], under setting [1], the EC50 turned out to be 11 µM.

Regarding `NCCCCCCNS(=O)(=O)c1cccc2cnccc12` [Compound (4), N-(6-aminohexyl)-5-isoquinolinesulfonamide], the EC50 under setting [1] was 10 µM.

Take `NCCCCCCCCCCNS(=O)(=O)c1cccc2cnccc12` [Compound (5), N-(10-aminodecyl)-5-isoquinolinesulfonamide]: under setting [1], the EC50 is 14 µM.

Turning to `CC(CN)NS(=O)(=O)c1cccc2cnccc12` (stereo not shown) [Compound (6), N-(2-amino-1-methylethyl)-5-isoquinolinesulfonamide], under setting [1], the EC50 was 10 µM.

For `CCC(CN)NS(=O)(=O)c1cccc2cnccc12` (stereo not shown) [Compound (7), N-(1-aminomethylpropyl)-5-isoquinolinesulfonamide], the EC50 under setting [1] stood at 21 µM.

As to `CCCCC(CN)NS(=O)(=O)c1cccc2cnccc12` (stereo not shown) [Compound (8), N-(1-aminomethylpentyl)-5-isoquinolinesulfonamide], the EC50 under setting [1] is 19 µM.

With `CC(N)CNS(=O)(=O)c1cccc2cnccc12` (stereo not shown) [Compound (9), N-(2-aminopropyl)-5-isoquinolinesulfonamide], under setting [1], the EC50 stood at 15 µM.

For the compound `CC(C)C(N)CNS(=O)(=O)c1cccc2cnccc12` (stereo not shown) [Compound (11), N-(2-amino-3-methylbutyl)-5-isoquinolinesulfonamide], the EC50 under setting [1] amounted to 28 µM.

As for `NCC(NS(=O)(=O)c1cccc2cnccc12)c1ccccc1` (stereo not shown) [Compound (12), N-(2-amino-1-phenylethyl)-5-isoquinolinesulfonamide], the EC50 under setting [1] was determined as 18 µM.

For `NC(CNS(=O)(=O)c1cccc2cnccc12)c1ccccc1` (stereo not shown) [Compound (13), N-(2-amino-2-phenylethyl)-5-isoquinolinesulfonamide], the EC50 under setting [1] amounted to 25 µM.

`CNCCNS(=O)(=O)c1cccc2cnccc12` [Compound (14), N-(2-methylaminoethyl)-5-isoquinolinesulfonamide]: the EC50 under setting [1] stood at 12 µM.

Take `CC(C)NCCNS(=O)(=O)c1cccc2cnccc12` [Compound (16), N-(2-isopropylaminoethyl)-5-isoquinolinesulfonamide]: the EC50 under setting [1] was 10 µM.

On to `CN(C)CCCNS(=O)(=O)c1cccc2cnccc12` [Compound (17), N-(3-dimethylaminopropyl)-5-isoquinolinesulfonamide], for which the EC50 under setting [1] turned out to be 10 µM.

Consider `CCN(CC)CCCNS(=O)(=O)c1cccc2cnccc12` [Compound (18), N-(3-diethylaminopropyl)-5-isoquinolinesulfonamide], for which the EC50 under setting [1] was 30 µM.

On to `CCCCN(CCCC)CCCNS(=O)(=O)c1cccc2cnccc12` [Compound (19), N-(3-di-n-butylaminopropyl)-5-isoquinolinesulfonamide], for which the EC50 under setting [1] stood at 17 µM.

Turning to `O=S(=O)(NCCCN1CCCCC1)c1cccc2cnccc12` [Compound (20), N-(3-piperidinopropyl)-5-isoquinolinesulfonamide], the EC50 under setting [1] was determined as 42 µM.

Turning to `O=S(=O)(NCCCN1CCOCC1)c1cccc2cnccc12` [Compound (21), N-(3-morpholinopropyl)-5-isoquinolinesulfonamide], the EC50 under setting [1] turned out to be 50 µM.

`CN(CCCNS(=O)(=O)c1cccc2cnccc12)C1CCCCC1` [Compound (22), N-[3-(N-methyl-N-cyclohexylamino)propyl]-5-isoquinolinesulfonamide]: under setting [1], the EC50 turned out to be 42 µM.

`CN(CCCNS(=O)(=O)c1cccc2cnccc12)c1ccccc1` [Compound (23), N-[3-(N-methyl-N-phenylamino)propyl]-5-isoquinolinesulfonamide]: the EC50 under setting [1] came out at 4 µM.

Turning to `CN(CCCNS(=O)(=O)c1cccc2cnccc12)Cc1ccccc1` [Compound (24), N-[3-(N-methyl-N-benzylamino)propyl]-5-isoquinolinesulfonamide], under setting [1], the EC50 was found to be 17 µM.

Regarding `CNS(=O)(=O)c1cccc2cnccc12` [Compound (25), N-methyl-5-isoquinolinesulfonamide], the EC50 under setting [1] amounted to 13 µM.

Take `CCNS(=O)(=O)c1cccc2cnccc12` [Compound (26), N-ethyl-5-isoquinolinesulfonamide]: the EC50 under setting [1] is 8.8 µM.

Consider `CCCCNS(=O)(=O)c1cccc2cnccc12` [Compound (27), N-n-Butyl-5-isoquinolinesulfonamide], for which the EC50 under setting [1] stood at 21 µM.

On to `CC(C)CNS(=O)(=O)c1cccc2cnccc12` [Compound (28), N-isobutyl-5-isoquinolinesulfonamide], for which the EC50 under setting [1] stood at 19 µM.

For the compound `CN(C)S(=O)(=O)c1cccc2cnccc12` [Compound (29), N,N-dimethyl-5-isoquinolinesulfonamide], the EC50 under setting [1] amounted to 13 µM.

Turning to `CCN(CC)S(=O)(=O)c1cccc2cnccc12` [Compound (30), N,N-diethyl-5-isoquinolinesulfonamide], the EC50 under setting [1] came to 8.9 µM.

Consider `CCCCN(CCCC)S(=O)(=O)c1cccc2cnccc12` [Compound (31), N,N-di-n-butyl-5-isoquinolinesulfonamide], for which the EC50 under setting [1] turned out to be 28 µM.

For the compound `O=S(=O)(c1cccc2cnccc12)N1CCCCC1` [Compound (32), 1-(5-isoquinolinesulfonyl)piperidine], the EC50 under setting [1] amounted to 16 µM.

Take `O=S(=O)(c1cccc2cnccc12)N1CCCC1` [Compound (33), 1-(5-isoquinolinesulfonyl)pyrrolidine]: under setting [1], the EC50 amounted to 11 µM.

As for `O=S(=O)(c1cccc2cnccc12)N1CCOCC1` [Compound (34), 1-(5-isoquinolinesulfonyl)morpholine], the EC50 under setting [1] is 10 µM.

`CN1CCN(S(=O)(=O)c2cccc3cnccc23)CC1` [Compound (36), 1-(5-isoquinolinesulfonyl)-4-methylpiperazine]: the EC50 under setting [1] is 7.7 µM.

With `CC1CN(S(=O)(=O)c2cccc3cnccc23)CCN1` (stereo not shown) [Compound (37), 1-(5-isoquinolinesulfonyl)-3-methylpiperazine], the EC50 under setting [1] was determined as 4 µM.

Take `CC1CNCCN1S(=O)(=O)c1cccc2cnccc12` (stereo not shown) [Compound (38), 1-(5-isoquinolinesulfonyl)-2-methylpiperazine]: the EC50 stood at 5 µM.

As to `CC1CN(S(=O)(=O)c2cccc3cnccc23)CC(C)N1` (stereo not shown) [Compound (39), 1-(5-isoquinolinesulfonyl)-3,5-dimethylpiperazine], the EC50 under setting [1] is 9.5 µM.

As for `CC1CN(S(=O)(=O)c2cccc3cnccc23)C(C)CN1` (stereo not shown) [Compound (40), 1-(5-isoquinolinesulfonyl)-2,5-dimethylpiperazine], the EC50 under setting [1] turned out to be 0.6 µM.

Consider `CC1NCCN(S(=O)(=O)c2cccc3cnccc23)C1C` (stereo not shown) [Compound (41), 1-(5-isoquinolinesulfonyl)-2,3-dimethylpiperazine], for which, under setting [1], the EC50 is 1.5 µM.

Take `CCN1CCN(S(=O)(=O)c2cccc3cnccc23)CC1` [Compound (42), 1-(5-isoquinolinesulfonyl)-4-ethylpiperazine]: the EC50 under setting [1] was determined as 18 µM.

As to `CCC1CN(S(=O)(=O)c2cccc3cnccc23)CCN1` (stereo not shown) [Compound (43), 1-(5-isoquinolinesulfonyl)-3-ethylpiperazine], the EC50 under setting [1] amounted to 6.1 µM.

Take `CCCN1CCN(S(=O)(=O)c2cccc3cnccc23)CC1` [Compound (44), 1-(5-isoquinolinesulfonyl)-4-n-propylpiperazine]: under setting [1], the EC50 was 8.6 µM.
